Key:
[1] = tested on: C166 cells; assay: Confocal microscopy of QD-SNAs in C166 cells; format: cell-based, mouse; details: C166 cells co-treated with equal concentrations of a QD-SNA and an AuNP-SNA of the other shell
Protocol: Five nanometer AuNP-SNAs and QD-SNAs comprised of oligonucleotides listed in Table 2 were prepared to study the effect of the poly G shell on the cellular uptake of SNAs of different core compositions (FIG. 6). All sequences are 28 bases long and terminated with a dibenzocyclooctyl (DBCO) group. The AuNP-SNAs and QD-SNAs were synthesized using a previously described strategy [Zhang et al., Nat Mater 12: 741-746 (2013), incorporated herein by reference in its entirety]. In one set of experiments, C166 cells were treated with equal concentrations of T-rich QD-SNAs and poly G AuNP-SNAs. In another set of experiments, cells were treated with equal concentrations of T-rich AuNP-SNAs and poly G QD-SNAs. Confocal microscopy was then used to track the fluorescent signal of the QDs that entered cells. […] To further confirm, ICP-MS was used to analyze the Au content and Cd content in C166 cells treated with T-rich AuNP-SNAs or QD-SNAs alone, poly G AuNP-SNAs or QD-SNAs alone, a combination of T-rich AuNP-SNAs and poly G QD-SNAs, and a combination of T-rich QD-SNAs and poly G AuNP-SNAs. C166 cells treated with poly G AuNP-SNAs have 3 times higher Au content than cells treated with T-rich AuNP-SNAs. […] Cells treated with poly G AuNP-SNAs and T-rich QD-SNAs have higher Au content compared to Cd content, and this trend is reversed for cells treated with T-rich AuNP-SNAs and poly G QD-SNAs (FIG. 6b).

[2] = tested on: C166 cells; assay: ICP-MS of Au and Cd content in C166 cells (competitive cellular uptake assay); format: cell-based, mouse
Protocol: Five nanometer AuNP-SNAs and QD-SNAs comprised of oligonucleotides listed in Table 2 were prepared to study the effect of the poly G shell on the cellular uptake of SNAs of different core compositions (FIG. 6). All sequences are 28 bases long and terminated with a dibenzocyclooctyl (DBCO) group. The AuNP-SNAs and QD-SNAs were synthesized using a previously described strategy [Zhang et al., Nat Mater 12: 741-746 (2013), incorporated herein by reference in its entirety]. In one set of experiments, C166 cells were treated with equal concentrations of T-rich QD-SNAs and poly G AuNP-SNAs. In another set of experiments, cells were treated with equal concentrations of T-rich AuNP-SNAs and poly G QD-SNAs. Confocal microscopy was then used to track the fluorescent signal of the QDs that entered cells. […] To further confirm, ICP-MS was used to analyze the Au content and Cd content in C166 cells treated with T-rich AuNP-SNAs or QD-SNAs alone, poly G AuNP-SNAs or QD-SNAs alone, a combination of T-rich AuNP-SNAs and poly G QD-SNAs, and a combination of T-rich QD-SNAs and poly G AuNP-SNAs. […]
ICP-MS. After adding 5 μL of 5 ppm indium (internal standard) and 5 mL of matrix solution (2% HCl and 2% HNO3), the Au-197 content of the resultant solution was measured by an X Series II ICP-MS (ThermoFisher) after subtracting the background gold content of untreated cells. […]

Substance: T-rich QD-SNAs: CdSe quantum dot, polymer-coated, with DBCO-terminated 28-base T-rich DNA, SEQ ID NO: 8 (DNA TATCGTATTTACTCTGATTTTTTTTTTT; DBCO-terminated DNA clicked to polymer-coated CdSe quantum dot, further chemistry not given here)
- intracellular fluorescence of QDs [1]: very little intracellular fluorescence

Substance: poly G QD-SNAs: CdSe quantum dot, polymer-coated, with DBCO-terminated 28-base DNA (GGT)5T13, SEQ ID NO: 7 (DNA GGTGGTGGTGGTGGTTTTTTTTTTTTTT; DBCO-terminated DNA clicked to polymer-coated CdSe quantum dot, further chemistry not given here)
- Cd content of cells versus cells treated with T-rich QD-SNAs ([2]; C166 cells): three-fold higher Cd content
- competitive cellular uptake (Au versus Cd content) ([2]; C166 cells treated with a combination of AuNP-SNAs and QD-SNAs): preferentially enter cells
- intracellular fluorescence of QDs [1]: significantly higher intracellular fluorescence

From patent US11213593B2, “Sequence-specific cellular uptake of spherical nucleic acid nanoparticle conjugates” (priority 2014, dated 2022)
